Data taken from patent US6479517B1, “Phosphorous-containing benzothiophenes” (Eli Lilly and Company, priority 1995, dated 2002).
pIC50: −log10 of the molar value.

Tests used:
[1] = tested on: Uterine Eosinophil Peroxidase (EPO); experiment: Uterine Eosinophil Peroxidase (EPO) Assay; assay type: in vivo, rat
Text: (§1) Seventy-five day old female Sprague Dawley rats (weight range of 200 to 225g) were obtained from Charles River Laboratories (Portage, Mich.). The animals were either bilaterally ovariectomized (OVX) or exposed to a Sham surgical procedure at Charles River Laboratories, and then shipped after one week. Upon arrival, they were housed in metal hanging cages in groups of 3 or 4 per cage and had ad libitum access to food (calcium content approximately 0.5%) and water for one week. Room temperature was maintained at 22.20°±1.7° C. with a minimum relative humidity of 40%. The photoperiod in the room was 12 hours light and 12 hours dark.
(§2) Dosing Regimen Tissue Collection. After a one week acclimation period (therefore, two weeks post-OVX) daily dosing with test compound was initiated. 17α-ethynyl estradiol or the test compound were given orally, unless otherwise stated, as a suspension in 1% carboxymethylcellulose or dissolved in 20% cyclodextrin. Animals were dosed daily for 4 days. Following the dosing regimen, animals were weighed and anesthetized with a ketamine: xylazine (2:1, V:V) mixture and a blood sample was collected by cardiac puncture. The animals were then sacrificed by asphyxiation with CO2, the uterus was removed through a midline incision, and a wet uterine weight was determined.
Uterine Eosinophil Peroxidase (EPO) Assay. Uteri were kept at 4° C. until time of enzymatic analysis. The uteri were then homogenized in 50 volumes of 50 mM Tris buffer (pH—8.0) containing 0.005% Triton X-100. Upon addition of 0.01% hydrogen peroxide and 10 mM O-phenylenediamine (final concentrations) in Tris buffer, increase in absorbance was monitored for one minute at 450 nm. The presence of eosonophils in the uterus is an indication of estrogenic activity of a compound. The maximal velocity of a 15 second interval was determined over the initial, linear portion of the reaction curve.

[2] = tested on: ovariectomized rats; experiment: Serum cholesterol in ovariectomized rat post-menopausal model; assay type: in vivo; conditions: OVX Sprague Dawley rats, oral, daily for 4 days
Protocol: (§3) In the examples illustrating the methods, a post-menopausal model was used in which effects of different treatments upon circulating lipids were determined.
as §1, §2
Cholesterol Analysis. Blood samples were allowed to clot at room temperature for 2 hours, and serum was obtained following centrifugation for 10 minutes at 3000 rpm. Serum cholesterol was determined using a Boehringer Mannheim Diagnostics high performance cholesterol assay. Briefly the cholesterol was oxidized to cholest-4-en-3-one and hydrogen peroxide. The hydrogen peroxide was then reacted with phenol and 4-aminophenazone in the presence of peroxidase to produce a p-quinone imine dye, which was read spectrophotemetrically at 500 nm. Cholesterol concentration was then calculated against a standard curve. The entire assay was automated using a Biomek Automated Workstation.

[3] = tested on: ovariectomized rats; experiment: Uterine weight in ovariectomized rat post-menopausal model (4-day dosing); assay type: in vivo; conditions: for Uterine Weight (% increase vs. OVX): OVX Sprague Dawley rats, oral, daily for 4 days
Protocol: as §3, §1, §2

[4] = tested on: Uterine Eosinophil Peroxidase (EPO); experiment: Uterine Eosinophil Peroxidase (EPO) Assay; assay type: in vivo, rat; conditions: stromal layer of ovariectomized rats
[5] = tested on: MCF-7 breast adenocarcinoma cells; experiment: MCF-7 Proliferation Assay; assay type: cell-based; conditions: Homo sapiens, MCF7; MCF-7 cells, 48 hours with drug, 4 hours thymidine pulse; read-out: IC50 (MCF-7 proliferation, tritiated thymidine)
Protocol: MCF-7 breast adenocarcinoma cells (ATCC HTB 22) were maintained in MEM (minimal essential medium, phenol red-free, Sigma, St. Louis, Mo.) supplimented with 10% fetal bovine serum (FBS) (V/V), L-glutamine (2 mM), sodium pyruvate (1 mM), HEPES {(N-[2-hydroxyethyl]piperazine-N′-[2-ethanesulfonic acid]10 mM}, non-essential amino acids and bovine insulin (1 ug/mL) (maintenance medium). Ten days prior to assay, MCF-7 cells were switched to maintenance medium supplemented with 10% dextran coated charcoal stripped fetal bovine serum (DCC-FBS) assay medium) in place of 10% FBS to deplete internal stores of steroids. MCF-7 cells were removed from maintenance flasks using cell dissociation medium (Ca++/Mg++ free HBSS (phenol red-free) supplemented with 10 mM HEPES and 2 mM EDTA). Cells were washed twice with assay medium and adjusted to 80,000 cells/ML. Approximately 100 μL (8,000 cells) were added to flat-bottom microculture wells (Costar 3596) and incubated at 37° C. in a 5% CO2 humidified incubator for 48 hours to allow for cell adherence and equilibration after transfer. Serial dilutions of drugs or DMSO as a diluent control were prepared in assay medium and 50 μL transferred to triplicate microcultures followed by 50 μL assay medium for a final volume of 200 μL. After an additional 48 hours at 37° C. in a 5% CO2 humidified incubator, microcultures were pulsed with tritiated thymidine (1 uCi/well) for 4 hours. Cultures were terminated by freezing at −70° C. for 24 hours followed by thawing and harvesting of microcultures using a Skatron Semiautomatic Cell Harvester. Samples were counted by liquid scintillation using a Wallac BetaPlace β counter. Results in Table 2 below show the ED50 for certain compounds of the present invention.

[6] = OVX Sprague Dawley rats, oral, daily for 4 days, dose 0.1 mg/kg
[7] = OVX Sprague Dawley rats, oral, daily for 4 days, dose 0.01 mg/kg
[8] = OVX Sprague Dawley rats, oral, daily for 4 days, dose 1.0 mg/kg

Row | Uterine EPO (V. max) ([1]; rat, in vivo, po, 0.01 mg/kg) | Uterine EPO (V. max) ([1]; rat, in vivo, po, 0.1 mg/kg) | Uterine EPO (V. max) ([1]; rat, in vivo, po, 1 mg/kg) | SMILES | Uterine EPO (V. max) [1, 6] | Serum Cholesterol (% decrease vs. OVX) ([2]; dose 0.1 mg/kg) | Uterine Weight (% increase vs. OVX) ([3]; dose 0.1 mg/kg) | Effect on uterine weight (in words) ([3]; compared to ovariectomized test animals, EE2 orally at 0.1 mg/kg/day) | Eosinophil infiltration into the uterus (in words) [4] | Uterine EPO (V. max) [1, 7] | Uterine EPO (V. max) [1, 8] | Serum Cholesterol (% decrease vs. OVX) ([2]; dose 0.01 mg/kg) | Serum Cholesterol (% decrease vs. OVX) ([2]; dose 1.0 mg/kg) | Uterine Weight (% increase vs. OVX) ([3]; dose 0.01 mg/kg) | Uterine Weight (% increase vs. OVX) ([3]; dose 1.0 mg/kg) | pIC50 [5]
1 | – | – | – | C#C[C@]1(O)CC[C@H]2[C@@H]3CCc4cc(O)ccc4[C@H]3CC[C@@]21C [EE2, 17α-ethynyl estradiol, reference compound] | 109.3 | 85.9% | 171.5% | substantially greater than the uterine weight of ovariectomized test animals | substantial, expected increase in eosinophil infiltration | – | – | – | – | – | – | –
2 | – | – | – | CCOP(=O)(OCC)Oc1ccc(-c2sc3cc(OP(=O)(OCC)OCC)ccc3c2C(=O)c2ccc(OCCN3CCCCC3)cc2)cc1.Cl [Example 1] | 6.5 | 41.1% | 25.2% | – | – | 0.68 | 5.8 | 24.3% | 17.4% | 51.5% | 37.0% | 9.00
3 | – | – | – | Cl.O=C(c1ccc(OCCN2CCCCC2)cc1)c1c(-c2ccc(OP(=O)(Oc3ccccc3)Oc3ccccc3)cc2)sc2cc(OP(=O)(Oc3ccccc3)Oc3ccccc3)ccc12 [Example 2] | 9.8 | 15.6% | 12.4% | – | – | 4 | 5.6 | −48.2% | 55.2% | 17.4% | 31.4% | 8.00
4 | – | – | – | Cl.O=C(c1ccc(OCCN2CCCCC2)cc1)c1c(-c2ccc(OP(=O)(c3ccccc3)c3ccccc3)cc2)sc2cc(OP(=O)(c3ccccc3)c3ccccc3)ccc12 [Example 3] | 7 | 37.6% | 47.1% | – | – | 3.7 | 6.7 | −25% | 57.5% | 22.5% | 24.7% | 9.00
5 | 2.2 | 4.3 | 3.9 | Cl.O=C(c1ccc(OCCN2CCCCC2)cc1)c1c(-c2ccc(O)cc2)sc2cc(O)ccc12 [Raloxifene, 6-hydroxy-2-(4-hydroxyphenyl)-3-[4-(2-piperidinoethoxy)benzoyl]benzo[b]thiophene, hydrochloride, reference compound] | – | 75.6% | – | – | – | – | – | 65% | 71.1% | – | – | –
